Data on 17 molecules can be found in US12522601B2, “1,3,4-oxadiazole derivative compounds as histone deacetylase 6 inhibitor, and the pharmaceutical composition comprising the same” (CHONG KUN DANG PHARMACEUTICAL CORP., priority 2020, dated 2026).

For one assay, the target named is T1, human recombinant HDAC6 (Homo sapiens, UniProt Q9UBN7).
T1 construct: purchased Calbiochem Inc. 382180
T1 sequence (Q9UBN7 1-1215): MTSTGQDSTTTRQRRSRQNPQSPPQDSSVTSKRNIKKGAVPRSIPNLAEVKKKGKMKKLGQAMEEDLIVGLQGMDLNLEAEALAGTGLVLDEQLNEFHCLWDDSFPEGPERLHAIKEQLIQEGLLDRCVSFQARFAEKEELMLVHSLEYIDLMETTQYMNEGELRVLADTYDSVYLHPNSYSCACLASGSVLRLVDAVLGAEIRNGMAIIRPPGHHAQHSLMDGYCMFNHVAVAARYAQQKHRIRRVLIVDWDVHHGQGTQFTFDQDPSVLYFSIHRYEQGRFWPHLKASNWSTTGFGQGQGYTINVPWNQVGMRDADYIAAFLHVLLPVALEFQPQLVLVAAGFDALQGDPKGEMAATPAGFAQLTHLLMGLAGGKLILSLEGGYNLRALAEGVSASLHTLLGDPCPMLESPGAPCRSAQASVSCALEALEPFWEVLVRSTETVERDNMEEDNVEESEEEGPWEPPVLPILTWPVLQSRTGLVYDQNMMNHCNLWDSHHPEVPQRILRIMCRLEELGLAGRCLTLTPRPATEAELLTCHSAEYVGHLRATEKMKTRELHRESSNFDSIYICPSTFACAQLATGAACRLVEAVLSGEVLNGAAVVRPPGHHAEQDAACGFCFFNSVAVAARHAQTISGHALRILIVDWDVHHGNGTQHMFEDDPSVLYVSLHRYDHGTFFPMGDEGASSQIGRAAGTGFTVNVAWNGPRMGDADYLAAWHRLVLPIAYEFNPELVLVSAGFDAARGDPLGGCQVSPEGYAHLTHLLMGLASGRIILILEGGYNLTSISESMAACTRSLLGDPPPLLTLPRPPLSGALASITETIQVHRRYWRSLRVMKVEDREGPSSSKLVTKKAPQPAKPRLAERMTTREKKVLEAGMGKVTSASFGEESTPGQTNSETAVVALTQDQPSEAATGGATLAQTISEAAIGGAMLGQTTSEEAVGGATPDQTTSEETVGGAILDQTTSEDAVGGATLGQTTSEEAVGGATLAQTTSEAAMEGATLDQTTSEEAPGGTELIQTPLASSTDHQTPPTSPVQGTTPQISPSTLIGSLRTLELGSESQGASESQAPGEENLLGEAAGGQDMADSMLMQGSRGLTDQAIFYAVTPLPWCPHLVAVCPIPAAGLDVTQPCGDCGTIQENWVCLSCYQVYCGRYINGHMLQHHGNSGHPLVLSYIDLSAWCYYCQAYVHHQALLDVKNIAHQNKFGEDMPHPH
The assay is described as follows: In vitro HDAC enzyme activity inhibition assay, HDAC6 (HDAC Fluorimetric Drug Discovery Kit). It counts as biochemical. To be noted: for HDAC6 Selectivity (fold): HDAC6 versus HDAC1; for IC50: human recombinant HDAC6, same protocol as the HDAC1 test. As to the method:
(§1) In order to confirm the selectivity of the compounds represented by Chemical Formula I of the present invention to HDAC6 through HDAC1 and HDAC6 enzyme activity inhibition experiments, a comparison experiment was performed using the material that has already been developed as a control group.
(§2) HDAC enzyme activity was measured using the HDAC Fluorimetric Drug Discovery Kit (Enzo Life Sciences, Inc., BML-AK511, 516). For the HDAC1 enzyme activity test, human recombinant HDAC1 (BML-SE456) was used as an enzyme source and Fluor de Lys®-SIRT1 (BNL-KI177) was used as a substrate. After dispensing 5-fold diluted compounds into a 96-well plate, 0.3 μg of enzyme and 10 μM substrate were added to each well of the plate and allowed to react at 30° C. for 60 minutes. Next, Fluor de Lys® Developer II (BML-KI176) was added and reacted for 30 minutes to complete the reaction, and then the fluorescence values (Ex 360, Em 460) were measured using a multi-plate reader (Flexstation 3, Molecular Device). The HDAC6 enzymes were tested using human recombinant HDAC6 (382180) from Calbiochem Inc., according to the same protocol as the HDAC1 enzyme activity test method. With respect to the final result values, respective IC50 values were calculated using GraphPad Prism 4.0 program, and results thereof were summarized in Table 5 below.

The target in the next assay is T2, human recombinant HDAC1 (Homo sapiens, UniProt Q13547).
T2 construct: purchased Enzo Life Sciences, Inc. BML-SE456
Nature of the assay: In vitro HDAC enzyme activity inhibition assay, HDAC1 (HDAC Fluorimetric Drug Discovery Kit). It counts as biochemical. Conditions: human recombinant HDAC1, Fluor de Lys-SIRT1 substrate 10 μM, 30° C. for 60 minutes. On the procedure:
as §1, §2

The term IC50 denotes the concentration at which inhibition is half-maximal.

T2 sequence (Q13547 whole entry): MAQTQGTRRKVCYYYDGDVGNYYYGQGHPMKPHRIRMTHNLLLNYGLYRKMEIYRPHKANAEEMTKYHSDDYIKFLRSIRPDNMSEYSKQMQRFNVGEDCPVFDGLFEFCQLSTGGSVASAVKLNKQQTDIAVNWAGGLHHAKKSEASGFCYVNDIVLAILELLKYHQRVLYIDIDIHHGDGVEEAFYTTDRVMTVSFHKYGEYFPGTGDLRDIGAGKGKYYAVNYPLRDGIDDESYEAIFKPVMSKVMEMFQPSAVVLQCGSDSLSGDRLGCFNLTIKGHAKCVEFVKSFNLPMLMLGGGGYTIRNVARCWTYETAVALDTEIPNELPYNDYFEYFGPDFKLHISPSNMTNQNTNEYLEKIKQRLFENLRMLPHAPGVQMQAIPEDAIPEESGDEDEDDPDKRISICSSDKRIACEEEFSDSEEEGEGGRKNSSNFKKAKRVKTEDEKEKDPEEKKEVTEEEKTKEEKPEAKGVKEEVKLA

For the molecule `Fc1ccc(Cc2cn3ccc(-c4nnc(C(F)F)o4)cc3n2)cc1F` [Compound 3587, 2-(2-(3,4-difluorobenzyl)imidazo[1,2-a]pyridin-7-yl)-5-(difluoromethyl)-1,3,4-oxadiazole], at human recombinant HDAC6, the “HDAC6 Selectivity (fold)” value is on record as 150 fold and the IC50 is 334 nM. Besides, at human recombinant HDAC1, the IC50 was over 50000 nM.
Consider `O=C(C1CN(C2CCC(F)(F)CC2)C1)N(Cc1cn2ccc(-c3nnc(C(F)F)o3)cc2n1)c1cccc(F)c1` [Compound 4196, 1-(4,4-Difluorocyclohexyl)-N-((7-(5-(difluoromethyl)-1,3,4-oxadiazol-2-yl)imidazo[1,2-a]pyridin-2-yl)methyl)-N-(3-fluorophenyl) azetidine-3-carboxamide], for which, on human recombinant HDAC6, the “HDAC6 Selectivity (fold)” value came out at 276 fold and the IC50 amounted to 181 nM. For the same molecule, the IC50 on human recombinant HDAC1 was over 50000 nM.
Regarding `CC(=O)N1CC(C(=O)N(Cc2cn3ccc(-c4nnc(C(F)F)o4)cc3n2)c2cccc(F)c2)C1` [Compound 4197, 1-acetyl-N-((7-(5-(difluoromethyl)-1,3,4-oxadiazol-2-yl)imidazo[1,2-a]pyridine-2-yl)methyl)-N-(3-fluorophenyl) azetidine-3-carboxamide], at human recombinant HDAC6, the “HDAC6 Selectivity (fold)” value is 207 fold and the IC50 was found to be 242 nM. For the same molecule, the IC50 on human recombinant HDAC1 was over 50000 nM.
In the case of `O=C(N1CCN(C2CC3(CCC3)C2)CC1)N(Cc1cn2ccc(-c3nnc(C(F)F)o3)cc2n1)c1cccc(F)c1` [Compound 4620], the “HDAC6 Selectivity (fold)” value on human recombinant HDAC6 stood at 190 fold. Besides, the figures for the IC50 on human recombinant HDAC6 and on human recombinant HDAC1 were 263 nM and over 50000 nM, respectively.
On to `FC(F)c1nnc(-c2ccn3cc(COc4ccc(C(F)(F)F)cc4)nc3c2)o1` [Compound 3724, 2-(difluoromethyl)-5-(2-((4-(trifluoromethyl)phenoxy)methyl)imidazo[1,2-a]pyridin-7-yl)-1,3,4-oxadiazole], for which, on human recombinant HDAC6, the “HDAC6 Selectivity (fold)” value was found to be 56 fold and the IC50 was determined as 893 nM. Besides, the IC50 on human recombinant HDAC1 is over 50000 nM.
In the same order, the values of `Cc1cccc(OCc2cn3ccc(-c4nnc(C(F)F)o4)cc3n2)c1` [Compound 3720, 2-(difluoromethyl)-5-(2-((m-tolyloxy)methyl)imidazo[1,2-a]pyridin-7-yl)-1,3,4-oxadiazole] are 121 fold, 413 nM and over 50000 nM.
The like results for `O=C(N1CCN(C2CCC2)CC1)N(Cc1cn2ccc(-c3nnc(C(F)F)o3)cc2n1)c1ccccc1` [Compound 4036, 4-cyclobutyl-N-((7-(5-(difluoromethyl)-1,3,4-oxadiazol-2-yl)imidazo[1,2-a]pyridin-2-yl)methyl)-N-phenylpiperazine-1-carboxamide] were, in that order, 321 fold, 156 nM and over 50000 nM.
Regarding `O=C(N1CCN(C(=O)C(F)(F)F)CC1)N(Cc1cn2ccc(-c3nnc(C(F)F)o3)cc2n1)c1ccccc1` [Compound 4044, N-((7-(5-(difluoromethyl)-1,3,4-oxadiazol-2-yl)imidazo[1,2-a]pyridin-2-yl)methyl)-N-phenyl-4-(2,2,2-trifluoroacetyl)piperazine-1-carboxamide], at human recombinant HDAC6, the “HDAC6 Selectivity (fold)” value is on record as 384 fold. For the same molecule, the IC50 at human recombinant HDAC6 was 130 nM; at human recombinant HDAC1 it was over 50000 nM.
For the molecule `O=C(C1CN(C2CCOCC2)C1)N(Cc1cn2ccc(-c3nnc(C(F)F)o3)cc2n1)c1cccc(F)c1` [Compound 4195, N-((7-(5-(difluoromethyl)-1,3,4-oxadiazol-2-yl)imidazo[1,2-a]pyridin-2-yl)methyl)-N-(3-fluorophenyl)-1-(tetrahydro-2H-pyran-4-yl) azetidine-3-carboxamide], the “HDAC6 Selectivity (fold)” value at human recombinant HDAC6 was 261 fold. The IC50 is 192 nM on human recombinant HDAC6 and over 50000 nM on human recombinant HDAC1.
In the same order, the values of `O=C(C1CCN(C2CCC2)CC1)N(Cc1cn2ccc(-c3nnc(C(F)F)o3)cc2n1)c1ccccc1` [Compound 4118, 1-cyclobutyl-N-((7-(5-(difluoromethyl)-1,3,4-oxadiazol-2-yl)imidazo[1,2-a]pyridin-2-yl)methyl)-N-phenylpiperidine-4-carboxamide] are 151 fold, 332 nM and over 50000 nM.
`CC(CO)N1CCC(C(=O)N(Cc2cn3ccc(-c4nnc(C(F)F)o4)cc3n2)c2cccc(F)c2)CC1` (stereo not drawn) [Compound 4140, N-((7-(5-(difluoromethyl)-1,3,4-oxadiazol-2-yl)imidazo[1,2-a]pyridin-2-yl)methyl)-N-(3-fluorophenyl)-1-(1-hydroxypropan-2-yl)piperidine-4-carboxamide]: the “HDAC6 Selectivity (fold)” value at human recombinant HDAC6 amounted to 246 fold. The IC50 at human recombinant HDAC6 was 203 nM; at human recombinant HDAC1 it was over 50000 nM.
The like results for `CN(C)C(=O)N1CCN(C(=O)N(Cc2cn3ccc(-c4nnc(C(F)F)o4)cc3n2)c2ccccc2)CC1` [Compound 4047, N1-((7-(5-(difluoromethyl)-1,3,4-oxadiazol-2-yl)imidazo[1,2-a]pyridin-2-yl)methyl)-N4,N4-dimethyl-N1-phenylpiperazine-1,4-dicarboxamide] were, in that order, 400 fold, 125 nM and over 50000 nM.
Regarding `O=C(N1CCN(C2CCC(F)(F)CC2)CC1)N(Cc1cn2ccc(-c3nnc(C(F)F)o3)cc2n1)c1cccc(F)c1` [Compound 4091, 4-(4,4-difluorocyclohexyl)-N-((7-(5-(difluoromethyl)-1,3,4-oxadiazol-2-yl)imidazo[1,2-a]pyridin-2-yl)methyl)-N-(3-fluorophenyl)piperazine-1-carboxamide], at human recombinant HDAC6, the “HDAC6 Selectivity (fold)” value came to 194 fold and the IC50 is 257 nM. For the same molecule, at human recombinant HDAC1, the IC50 is over 50000 nM.
As for `O=C(C1CCN(c2ncccn2)CC1)N(Cc1cn2ccc(-c3nnc(C(F)F)o3)cc2n1)c1ccccc1` [Compound 4132, N-((7-(5-(difluoromethyl)-1,3,4-oxadiazol-2-yl)imidazo[1,2-a]pyridin-2-yl)methyl)-N-phenyl-1-(pyrimidin-2-yl)piperidine-4-carboxamide], at human recombinant HDAC6, the “HDAC6 Selectivity (fold)” value is given as 76 fold and the IC50 is 655 nM. Moreover, on human recombinant HDAC1, the IC50 was over 50000 nM.
As for `CN(Cc1cn2ccc(-c3nnc(C(F)F)o3)cc2n1)c1ccccc1` [Compound 3725, N-((7-(5-(difluoromethyl)-1,3,4-oxadiazol-2-yl)imidazo[1,2-a]pyridin-2-yl)methyl)-N-methylaniline], on human recombinant HDAC6, the “HDAC6 Selectivity (fold)” value came to 282 fold and the IC50 came out at 177 nM. Further, the IC50 on human recombinant HDAC1 was over 50000 nM.
Regarding `O=C(C1CCN(c2ccccn2)CC1)N(Cc1cn2ccc(-c3nnc(C(F)F)o3)cc2n1)c1cccc(F)c1` [Compound 4156, N-((7-(5-(difluoromethyl)-1,3,4-oxadiazol-2-yl)imidazo[1,2-a]pyridin-2-yl)methyl)-N-(3-fluorophenyl)-1-(pyridin-2-yl)piperidine-4-carboxamide], at human recombinant HDAC6, the “HDAC6 Selectivity (fold)” value worked out at 359 fold and the IC50 came out at 139 nM. For the same molecule, the IC50 on human recombinant HDAC1 is over 50000 nM.
With `Cc1ccc(Cc2cn3ccc(-c4nnc(C(F)F)o4)cc3n2)cc1` [Compound 3589, 2-(difluoromethyl)-5-(2-(4-methylbenzyl)imidazo[1,2-a]pyridin-7-yl)-1,3,4-oxadiazole], on human recombinant HDAC6, the “HDAC6 Selectivity (fold)” value stood at 94 fold and the IC50 stood at 530 nM. The IC50 at human recombinant HDAC1 was over 50000 nM.
